Source: patent US7176313B2, “Anti acid-fast bacterial agent containing pyridonecarboxylic acids as active ingredient” (Daiichi Pharmaceutical Co., Ltd., priority 2000, dated 2007)
Converted amounts (≈) assume the structure as drawn. Like-named read-outs stand apart in the source and are kept apart here.

Experiments:
[1] = tested on: Mycobacterium tuberculosis (RFP sensitive); experiment: Antibacterial activity (MIC) against Mycobacterium tuberculosis (RFP sensitive); assay type: cell-based; conditions: Table 5
M. intracellulare = experiment: Antibacterial activity (MIC) against M. intracellulare; assay type: cell-based, Mycobacterium intracellulare; conditions: Table 3
Experimental: Antibacterial activity of the compounds of the invention was measured in accordance with the method described in the literature of Antimicrob. Agents and Chemother., 38, 2877 (1994), and the results are shown in Tables 3 to 8 in terms of MIC (μg/ml). In the tables, “OFLX” is an abbreviation of “OFLOXAIN”.

M. avium = experiment: Antibacterial activity (MIC) against M. avium; assay type: cell-based, Mycobacterium avium; conditions: Table 3
Experimental: Antibacterial activity of the compounds of the invention was measured in accordance with the method described in the literature of Antimicrob. […] In the tables, “OFLX” is an abbreviation of “OFLOXAIN”.

| Structure (SMILES) | MIC ([1]; M. tuberculosis H37Rv) [µg/mL] | MIC ([1]; M. tuberculosis Kurono) [µg/mL] | MIC ([1]; M. tuberculosis No. 40) [µg/mL] | MIC ([1]; M. tuberculosis No. 41) [µg/mL] | MIC ([1]; M. tuberculosis No. 43) [µg/mL] | MIC ([1]; M. tuberculosis No. 68) [µg/mL] | MIC (M. intracellulare; M. intracellulare N-294) [µg/mL] | MIC (M. intracellulare; M. intracellulare N-313) [µg/mL] | MIC (M. intracellulare; M. intracellulare N-338) [µg/mL] | MIC (M. intracellulare; M. intracellulare N-345) [µg/mL] | MIC (M. avium; M. avium N-357) [µg/mL] | MIC (M. avium; M. avium N-444) [µg/mL] | MIC (M. avium; M. avium N-458) [µg/mL] | MIC (M. avium; M. avium N-472) [µg/mL] | further results |
| --- | --- | --- | --- | --- | --- | --- | --- | --- | --- | --- | --- | --- | --- | --- | --- |
| Cc1c(N2CC3CCCNC3C2)c(F)cc2c(=O)c(C(=O)O)cn([C@@H]3C[C@@H]3F)c12 (stereo partly shown) [Compd. 10] | 0.013 (≈ 0.0322 µM) | 0.006 (≈ 0.0149 µM) | 0.006 (≈ 0.0149 µM) | <0.003 | 0.05 (≈ 0.124 µM) | 0.013 (≈ 0.0322 µM) | 0.39 (≈ 0.967 µM) | 0.10 (≈ 0.248 µM) | 0.39 (≈ 0.967 µM) | 0.78 (≈ 1.93 µM) | 0.05 (≈ 0.124 µM) | 0.39 (≈ 0.967 µM) | 0.10 (≈ 0.248 µM) | 0.39 (≈ 0.967 µM) | – |
| C[C@H]1COc2c(N3CC(N)C4(CC4)C3)c(F)cc3c(=O)c(C(=O)O)cn1c23 (stereo partly shown) [Compd. 14] | 0.20 (≈ 0.536 µM) | 0.10 (≈ 0.268 µM) | 0.20 (≈ 0.536 µM) | – | – | 0.20 (≈ 0.536 µM) | 3.13 (≈ 8.38 µM) | 0.78 (≈ 2.09 µM) | 6.25 (≈ 16.7 µM) | 6.25 (≈ 16.7 µM) | 1.56 (≈ 4.18 µM) | 3.13 (≈ 8.38 µM) | 1.56 (≈ 4.18 µM) | 6.25 (≈ 16.7 µM) | – |
| Cc1c(N2CC3CCCNC3C2)c(F)cc2c(=O)c(C(=O)O)cn(C3CC3)c12 (stereo not shown) [Compd. 9] | 0.025 (≈ 0.0649 µM) | 0.013 (≈ 0.0337 µM) | 0.013 (≈ 0.0337 µM) | <0.003 | 0.10 (≈ 0.259 µM) | 0.025 (≈ 0.0649 µM) | 0.39 (≈ 1.01 µM) | 0.10 (≈ 0.259 µM) | 0.39 (≈ 1.01 µM) | 0.39 (≈ 1.01 µM) | 0.10 (≈ 0.259 µM) | 0.10 (≈ 0.259 µM) | 0.10 (≈ 0.259 µM) | 0.78 (≈ 2.02 µM) | – |
| O=C(O)c1cn([C@@H]2C[C@@H]2F)c2c(Cl)c(N3CC4CCCNC4C3)c(F)cc2c1=O (stereo partly shown) [Compd. 2] | 0.025 (≈ 0.059 µM) | 0.013 (≈ 0.0307 µM) | 0.025 (≈ 0.059 µM) | 0.006 (≈ 0.0142 µM) | 0.10 (≈ 0.236 µM) | 0.025 (≈ 0.059 µM) | 0.39 (≈ 0.92 µM) | 0.20 (≈ 0.472 µM) | 0.39 (≈ 0.92 µM) | 0.78 (≈ 1.84 µM) | 0.20 (≈ 0.472 µM) | 0.39 (≈ 0.92 µM) | 0.20 (≈ 0.472 µM) | 0.78 (≈ 1.84 µM) | – |
| CO[C@H]1/C=C/O[C@@]2(C)Oc3c(C)c(O)c4c(O)c(c(/C=N/N5CCN(C)CC5)c(O)c4c3C2=O)NC(=O)/C(C)=C\C=C\[C@H](C)[C@H](O)[C@@H](C)[C@@H](O)[C@@H](C)[C@H](OC(C)=O)[C@@H]1C [RFP, rifampicin, reference compound] | – | – | – | – | – | – | – | – | 3.13 (≈ 3.8 µM) | 3.13 (≈ 3.8 µM) | – | – | – | – | MIC ([1]; Mycobacterium tuberculosis, H37RV, M. tuberculosis H37Rv, read-out: MIC): 0.2 µg/mL (≈ 0.243 µM); MIC ([1]; Mycobacterium tuberculosis, M. tuberculosis Kurono, read-out: MIC): 0.1 µg/mL (≈ 0.122 µM); MIC ([1]; Mycobacterium tuberculosis, M. tuberculosis No. 40, read-out: MIC): 0.1 µg/mL (≈ 0.122 µM); MIC ([1]; Mycobacterium tuberculosis, M. tuberculosis No. 41, read-out: MIC): 0.05 µg/mL (≈ 0.0608 µM); MIC ([1]; Mycobacterium tuberculosis, M. tuberculosis No. 43, read-out: MIC): 3.13 µg/mL (≈ 3.8 µM); MIC ([1]; Mycobacterium tuberculosis, M. tuberculosis No. 68, read-out: MIC): 3.13 µg/mL (≈ 3.8 µM); MIC (M. intracellulare; Mycobacterium intracellulare, M. intracellulare N-313, read-out: MIC): 0.78 µg/mL (≈ 0.948 µM); MIC (M. intracellulare; Mycobacterium intracellulare, M. intracellulare N-294, read-out: MIC): 3.13 µg/mL (≈ 3.8 µM); MIC (M. avium; Mycobacterium avium, M. avium N-357, read-out: MIC): 50 µg/mL (≈ 60.8 µM); MIC (M. avium; Mycobacterium avium, M. avium N-458, read-out: MIC): 100 µg/mL (≈ 122 µM) |
| Cc1c(N2CC(N)C3(CC3)C2)c(F)cc2c(=O)c(C(=O)O)cn([C@@H]3C[C@@H]3F)c12 (stereo partly shown) [Compd. 12] | 0.025 (≈ 0.0642 µM) | 0.025 (≈ 0.0642 µM) | 0.025 (≈ 0.0642 µM) | 0.006 (≈ 0.0154 µM) | 0.10 (≈ 0.257 µM) | 0.05 (≈ 0.128 µM) | 0.78 (≈ 2 µM) | 0.20 (≈ 0.514 µM) | 0.39 (≈ 1 µM) | 0.39 (≈ 1 µM) | 0.20 (≈ 0.514 µM) | 0.39 (≈ 1 µM) | 0.39 (≈ 1 µM) | 1.56 (≈ 4.01 µM) | – |
| NC1CN(c2c(F)cc3c(=O)c(C(=O)O)cn(C4CC4)c3c2Cl)CC12CC2 (stereo not shown) [Compd. 3] | 0.10 (≈ 0.255 µM) | 0.05 (≈ 0.128 µM) | 0.10 (≈ 0.255 µM) | 0.006 (≈ 0.0153 µM) | 0.78 (≈ 1.99 µM) | 0.10 (≈ 0.255 µM) | 1.56 (≈ 3.98 µM) | 0.39 (≈ 0.995 µM) | 1.56 (≈ 3.98 µM) | 1.56 (≈ 3.98 µM) | 0.39 (≈ 0.995 µM) | 1.56 (≈ 3.98 µM) | 0.78 (≈ 1.99 µM) | 6.25 (≈ 16 µM) | – |
